Among the test systems are LOX IMVI melanoma; DLD-1 colon; SNB-78 CNS; RXF 393 renal; HCT-116 colon; KM20L2 colon; SK-MEL-2 melanoma; COLO 205 colon; DMS 114 small cell lung; SN12C renal.
Common to all, as to experiment: NCI tumour cell line growth inhibition, 48 h

Molecules are shown by their SMILES. Where “and” joins values, the source holds several entries; their conditions need not be identical. Identical values can stand only once.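 Dose response: 5 concentrations. Exposure: 48 h. Format: 96-well plates. Endpoint: linear interpolation; highest concentration if not reached. At the GI50, growth is halved. Definition used: TGI = concentration required for complete inhibition of growth.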

`O=C(O)c1c(-c2cccc3ccccc23)sc(-c2cccc3ccccc23)c1C(=O)O`: the TGI with LOX IMVI melanoma, in the assay on DLD-1 colon, in the assay on SNB-78 CNS, with RXF 393 renal, in the assay on HCT-116 colon and with KM20L2 colon was more than 100000 nM throughout. For the same molecule, the TGI in the assay with SK-MEL-2 melanoma, in the assay with COLO 205 colon, with DMS 114 small cell lung and in the assay with SN12C renal was more than 100000 nM in each case.

`C[C@@H]1C[C@@H](O)[C@]2(O)O[C@@H]3C[C@@]4(C=O)[C@@H](CC[C@@H]5[C@@H]4CC[C@]4(C)[C@@H](C6=CC(=O)OC6)CC[C@]54O)C[C@H]3O[C@@H]2O1`: the GI50 with LOX IMVI melanoma was 47.2 nM; in the assay on DLD-1 colon, 5.3 nM; with HCT-116 colon, 19.7 nM; in the assay with KM20L2 colon it was 21.8 nM; in the assay with SK-MEL-2 melanoma, 52 nM and 89.8 nM; with COLO 205 colon it was 108 nM and 25 nM. Further, the GI50 in the assay on DMS 114 small cell lung and with SN12C renal was 5 nM each time. Also, the TGI in the assay with LOX IMVI melanoma is 62.4 nM and 165 nM and 88.4 nM; with DLD-1 colon, 37.5 nM and 33 nM; in the assay on SNB-78 CNS it was 211 nM; in the assay on RXF 393 renal it was 59.9 nM; with HCT-116 colon, 53.2 nM and 122 nM; with KM20L2 colon it was 63.1 nM and 107 nM. For the same molecule, the TGI is 82.6 nM and 277 nM and 91.8 nM with COLO 205 colon; 9.4 nM and 13.4 nM in the assay with DMS 114 small cell lung; 89.7 nM and 144 nM and 75.9 nM in the assay on SN12C renal.

As for `CC1=C(C(=O)Nc2ccccc2C)C(c2ccccc2)C(C(=O)Nc2ccccc2C)=C(C)N1`, the TGI is 42600 nM with LOX IMVI melanoma; more than 100000 nM in the assay on DLD-1 colon; 97400 nM in the assay with SNB-78 CNS; 71600 nM in the assay with RXF 393 renal; more than 100000 nM with HCT-116 colon; more than 100000 nM in the assay on KM20L2 colon. Moreover, the TGI is 93000 nM in the assay on SK-MEL-2 melanoma, 74200 nM in the assay on COLO 205 colon, more than 100000 nM in the assay with DMS 114 small cell lung and more than 100000 nM in the assay on SN12C renal.

As for `Cc1nc2c(nc1C)C(=O)c1cc(O)ccc1C2=O`, the TGI was more than 100000 nM in the assay with LOX IMVI melanoma; more than 86800 nM in the assay with DLD-1 colon; more than 100000 nM in the assay on SNB-78 CNS; more than 100000 nM in the assay with RXF 393 renal; more than 100000 nM in the assay on HCT-116 colon; more than 100000 nM in the assay on KM20L2 colon. Besides, the TGI with SK-MEL-2 melanoma was more than 100000 nM; with COLO 205 colon it was 45200 nM; in the assay with DMS 114 small cell lung, more than 90600 nM; with SN12C renal, more than 100000 nM.

These data come from PubChem BioAssay (NCI).
